# Test results published in patent US8652505B2, “Coating for medical implants” (Southwest Research Institute, priority 2010, dated 2014).
# Tested on: methicillin resistant Staphylococcus aureus (MRSA) bacteria (strain: ATCC#33591)
# Assay: Bacteria inhibition test on Mueller-Hinton agar (zone of inhibition / MIC)
# Format: cell-based
# Description: Bacteria inhibition tests were performed on Agar according to the standard method by using methicillin resistant Staphylococcus aureus (MRSA) bacteria (strain: ATCC#33591) in order to determine if the released vancomycin was active and unaffected by the coating and polymerization procedures described herein. The bacteria suspensions were cultured onto separate Mueller-Hinton agar plates at a concentration of 1−2×10^8 CFU/mL (CFU=colony forming unites) and incubated at 37° C. Released vancomycin, free vancomycin, and a standard vancomycin disk (loaded with 30 μg of vancomycin) were compared. After 24 hrs, the zone of inhibition was measured. To measure the sensitivity or the minimum inhibition concentration (MIC), different concentrations of vancomycin were loaded onto cellulose discs (40, 20, 10, 5, 2.5, and 1.25 μg per disc, N=3) and the zone of inhibition was measured.
Structure (SMILES),"activity of released drug in bacteria inhibition test (zone of inhibition after 24 hrs, 37° C., compared with free vancomycin and standard 30 μg disk)","MIC (vancomycin loaded on cellulose discs, against S. Aureus, FIG. 10) [µg]"
"CN[C@H](CC(C)C)C(=O)N[C@H]1C(=O)N[C@@H](CC(N)=O)C(=O)N[C@H]2C(=O)N[C@H]3C(=O)N[C@H](C(=O)N[C@H](C(=O)O)c4cc(O)cc(O)c4-c4cc3ccc4O)[C@H](O)c3ccc(c(Cl)c3)Oc3cc2cc(c3O[C@@H]2O[C@H](CO)[C@@H](O)[C@H](O)[C@H]2O[C@H]2C[C@](C)(N)[C@H](O)[C@H](C)O2)Oc2ccc(cc2Cl)[C@H]1O [released drug, vancomycin]",same activity as the free drug and standard drug,–
CN[C@H](CC(C)C)C(=O)N[C@H]1C(=O)N[C@@H](CC(N)=O)C(=O)N[C@H]2C(=O)N[C@H]3C(=O)N[C@H](C(=O)N[C@H](C(=O)O)c4cc(O)cc(O)c4-c4cc3ccc4O)[C@H](O)c3ccc(c(Cl)c3)Oc3cc2cc(c3O[C@@H]2O[C@H](CO)[C@@H](O)[C@H](O)[C@H]2O[C@H]2C[C@](C)(N)[C@H](O)[C@H](C)O2)Oc2ccc(cc2Cl)[C@H]1O [vancomycin],–,0.5 to 1
